pIC50: −log10 of the molar value. One block for each molecule: values may come before it.
Assays:
MCF7 [1] = assay: Cytotoxicity activity against human MCF7 cells assessed as decreased cell viability; type: functional, cell-based
[2] = Antiproliferative activity against human U87 cells assessed as reduction in cell viability by MTT assay; type: functional, cell-based, U-87MG ATCC; settings: U-87 MG
Bacillus cereus = assay: Antibacterial activity against Bacillus cereus assessed as reduction in microbial growth after 18 hrs by MTT based broth dilution method; type: functional, organism-based
Raji = assay: Antiproliferative activity against human Raji cells assessed as reduction in cell growth incubated for 72 hrs by MTT assay; type: functional, cell-based
MES-SA = assay: Cytotoxicity against human MES-SA cells assessed as reduction in cell viability incubated for 72 hrs by MTT assay; type: functional, cell-based
[3] = Induction of angiogenesis in human HUVEC cells; type: functional
[4] = Antioxidant activity assessed as DPPH radical scavenging activity; type: functional
Plasmodium falciparum [5] = assay: Antimalarial activity against Plasmodium falciparum Dd2 by HRP2 assay; type: functional, organism-based
Plasmodium falciparum [6] = assay: Antimalarial activity against Plasmodium falciparum by LDH assay; type: functional, organism-based
LS180 = assay: Anticancer activity against human LS180 assessed as inhibition in cell viability; type: functional, cell-based
MCF7 [7] = assay: Antiproliferative activity against human MCF7 cells assessed as inhibition of cell proliferation measured after 96 hrs by SRB assay; type: functional, cell-based; settings: MCF7, 96 h
Rattus norvegicus = species: Rattus norvegicus; assay: Antifibrotic activity in Sprague-Dawley rat model of BDL induced hepatic fibrosis assessed as […] fibrotic potential; type: functional
Ehrlich = assay: cells; settings: Mus musculus
Description: Anticancer activity against mouse EAC cells assessed as reduction in cell viability

Mus musculus = assay: Antiinflammatory activity in Swiss albino mouse model of carrageenan-induced paw edema assessed as reduction in paw edema; type: functional; parameters: scale not given: the % may be the effect or the level left
RAW264.7 = assay: Anti-inflammatory activity against mouse RAW264.7 cells assessed as inhibition of LPS-induced NO production at 50 ug/ml relative to control; type: functional; parameters: scale not given: the % may be the effect or the level left; settings: dose 50 µg/ml

SMILES: Cc1ccc2nc3c(c(-c4ccccc4)c2c1)c(=O)oc1ccccc13
pIC50 (MCF7 [1]): 7.30

SMILES: N#CC1=C(N)Oc2c(c(=O)oc3ccccc23)C12C(=O)N(CCCCCCCCCCBr)c1ccccc12 (stereo not given)
pIC50 [2]: 4.41
pIC50 (Bacillus cereus): 4.41

SMILES: COc1cccc(C2C3=C(CCCC3=O)Oc3c2c(=O)oc2ccccc32)c1 (stereo not given)
pIC50 (Raji): 4.14

SMILES: CN1CCN(Cc2[se]c3c(c2Br)c(=O)oc2ccccc23)CC1
pIC50 (MES-SA): 5.03
Activity [3]: 84%
pIC50 [4]: 4.21

pIC50 (Plasmodium falciparum [5]): 5.96
pIC50 (Plasmodium falciparum [6]): 5.96
SMILES: CCN(CC)CCCC(C)Nc1cc2c(c(C)n1)c(=O)oc1ccccc12 (stereo not given)

pIC50 (MCF7 [7]): 4.00
SMILES: O=C1CCCC(=O)C1
pIC50 (LS180): < 4.00

pIC50 (Ehrlich): 3.61
SMILES: CCc1ccccc1-n1c(N)c(C#N)c2c(c(=O)oc3ccc4ccccc4c32)c1=O
Activity (Rattus norvegicus): 193.07 µmol/L

SMILES: CCOc1nc(-c2ccco2)cc2c1c(=O)oc1ccccc12
Activity (Mus musculus): 89%
Activity (RAW264.7): 62%

Source: ChEMBL document CHEMBL5230136, “A review: Biologically active 3,4-heterocycle-fused coumarins” (Eur J Med Chem, 2021)
